Article PMC6294118 (Pharmaceutical research, 2018)

What was measured:
[1] = cited from earlier work; for Cmax port,unbound (maximal unbound plasma concentration in the portal vein): in vivo
[2] = target: T1, hOCT2 (Homo sapiens, UniProt O15244); experiment: Inhibition of hOCT2-mediated morphine uptake in HEK293-hOCT2 cells; type: cell-based; settings: for Cmax,unbound/IC50 (hOCT2): ratio of literature Cmax,unbound to hOCT2 IC50
T1 sequence (O15244 1-555): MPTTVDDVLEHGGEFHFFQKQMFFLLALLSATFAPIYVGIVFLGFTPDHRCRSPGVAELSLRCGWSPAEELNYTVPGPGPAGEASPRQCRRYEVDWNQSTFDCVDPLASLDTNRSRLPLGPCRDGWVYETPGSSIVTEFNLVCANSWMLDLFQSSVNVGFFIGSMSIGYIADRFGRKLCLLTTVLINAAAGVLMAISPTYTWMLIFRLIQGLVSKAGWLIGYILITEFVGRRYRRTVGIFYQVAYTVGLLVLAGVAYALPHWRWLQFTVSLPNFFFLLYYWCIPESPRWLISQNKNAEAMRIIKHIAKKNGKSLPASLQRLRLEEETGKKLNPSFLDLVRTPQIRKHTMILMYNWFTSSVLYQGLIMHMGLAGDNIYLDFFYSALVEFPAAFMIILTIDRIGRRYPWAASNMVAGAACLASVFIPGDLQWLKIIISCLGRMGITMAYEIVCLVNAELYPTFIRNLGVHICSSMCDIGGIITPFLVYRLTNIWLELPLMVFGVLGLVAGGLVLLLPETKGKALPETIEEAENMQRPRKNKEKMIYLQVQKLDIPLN

[3] = target: T2, hOCT1 (Homo sapiens, UniProt O15245); experiment: cell-based
T2 sequence (O15245 1-554): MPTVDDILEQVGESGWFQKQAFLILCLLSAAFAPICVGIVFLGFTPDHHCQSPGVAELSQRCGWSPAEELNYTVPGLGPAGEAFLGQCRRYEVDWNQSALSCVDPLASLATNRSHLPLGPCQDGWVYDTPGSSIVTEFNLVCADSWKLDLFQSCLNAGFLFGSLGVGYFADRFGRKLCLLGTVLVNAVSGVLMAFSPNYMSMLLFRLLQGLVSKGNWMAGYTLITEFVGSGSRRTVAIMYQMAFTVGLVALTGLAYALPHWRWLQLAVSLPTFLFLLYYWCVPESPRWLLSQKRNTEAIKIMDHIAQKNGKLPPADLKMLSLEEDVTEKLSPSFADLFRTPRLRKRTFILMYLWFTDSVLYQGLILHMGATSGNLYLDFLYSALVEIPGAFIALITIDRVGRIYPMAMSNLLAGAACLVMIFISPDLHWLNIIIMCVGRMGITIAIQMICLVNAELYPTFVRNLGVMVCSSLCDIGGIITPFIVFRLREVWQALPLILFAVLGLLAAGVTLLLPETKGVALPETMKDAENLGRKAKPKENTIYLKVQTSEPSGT

[4] = target: T2, hOCT1; settings: for Cmax,unbound/IC50 (hOCT1): ratio of literature Cmax,unbound to hOCT1 IC50; for Cmax,unbound/IC50 (hOCT1, second ratio column): ratio to hOCT1 IC50, the values fit Cmax port,unbound/IC50

CN(C)CCC=C1c2ccccc2CCc2ccccc21 [Amitriptyline, amitriptyline]
Cmax port,unbound (maximal unbound plasma concentration in the portal vein) [1]: 4300 nM | IC50 [2]: 410 ± 50 nM | Cmax,unbound/IC50 (hOCT2) [2]: 0.02 | IC50 [3]: 1890 ± 770 nM | Cmax,unbound/IC50 (hOCT1) [4]: 0.005 | Cmax,unbound/IC50 (hOCT1, second ratio column) [4]: 2.28

CNCCC(Oc1ccc(C(F)(F)F)cc1)c1ccccc1 (stereo not drawn) [Fluoxetine, fluoxetine]
Cmax port,unbound (maximal unbound plasma concentration in the portal vein) [1]: 700 nM | IC50 [2]: 3320 ± 760 nM | Cmax,unbound/IC50 (hOCT2) [2]: 0.003 | IC50 [3]: 9060 ± 3240 nM | Cmax,unbound/IC50 (hOCT1) [4]: 0.001 | Cmax,unbound/IC50 (hOCT1, second ratio column) [4]: 0.08

CN(C)CCCN1c2ccccc2CCc2ccccc21 [Imipramine, imipramine]
Cmax port,unbound (maximal unbound plasma concentration in the portal vein) [1]: 4500 nM | IC50 [3]: 4030 ± 1620 nM

CCc1c2c(nc3ccc(OC(=O)N4CCC(N5CCCCC5)CC4)cc13)-c1cc3c(c(=O)n1C2)COC(=O)[C@]3(O)CC [Irinotecan, irinotecan]
IC50 [3]: 1360 ± 430 nM

Cc1nccn1CC1CCc2c(c3ccccc3n2C)C1=O (stereo not drawn) [Ondansetron, ondansetron]
Cmax port,unbound (maximal unbound plasma concentration in the portal vein) [1]: 80 nM | IC50 [3]: 270 ± 100 nM

CN1CC[C@]23c4c5ccc(O)c4O[C@H]2[C@@H](O)C=C[C@H]3[C@H]1C5 [morphine]
Fraction of dose excreted as unchanged morphine in urine [1]: approximately 10%
